Measurements: patent US12650424B2, “Method and system for determining intracellular mediators' activity” (ECOLE POLYTECHNIQUE FEDERALE DE LAUSANNE (EPFL), priority 2020, dated 2026)

How the values were obtained:
[1] = test system: angiotensin receptor; details: plasma membranes of HEK cells on beads
[2] = test system: Protease-activated receptor PAR; assay: dose response of GPCR activation in plasma membranes on immunostained WGA-beads (Gαq release); type: biochemical; details: plasma membranes of HEK cells on beads; different concentrations
Text: FIG. 3. Schematic representation of the synthetic GPCR screening platform. 1. […] 2. […] 3. […] This leads to fluorescence labeled Gα-protein subunits. 4. […] 5.

receptor activation triggering release of Gαq [2] | Substance | receptor activation triggering release of Gαi [1]
 | angiotensin | activated in a dose-dependent manner
activated by different concentrations | thrombin | 
